Test results published in publication PMC6891325, “The Synthesis, Characterization, Cytotoxic Activity Assessment and Structure-Activity Relationship of 4-Aryl-6-(2,5-dichlorothiophen-3-yl)-2-methoxypyridine-3-carbonitriles” (Molecules, 2019).

Experiments:
[1] = system: HSF1184; experiment: MTT cytotoxicity assay, normal human fibroblasts HSF1184; format: cell-based; settings: for IC50: Fibroblast
Method: (§1) Three different cancer cell lines; namely, DU145 derived from prostate cancer cells (American Type Culture Collection No. HTB-81), HepG2 derived from human liver cancer cells (American Type Culture Collection No. HB-8065), MBA-MB-231 derived from breast cancer cells (American Type Culture Collection No. HTB-26) and normal human fibroblasts (HSF1184) were grown and cultivated according to our previously described method. Briefly, cells were seeded in Dulbecco′s modified Eagle’s media (DMEM) supplemented with 10% heat-inactivated fetal bovine serum (FBS), 100 IU/mL penicillin, […] and 2 mM glutamine. The cells were maintained in a humidified atmosphere with 5% CO2 at 37 °C for 8 days, with subsequent media renewal. Then, cells were plated in a 96-well flat bottom plate at a concentration of 10^4 cells/well in fresh complete growth medium for 24 h and maintained in 37 °C in a 5% CO2-humidified incubator.
(§2) Cells in 96-well flat bottom plates were first serum-starved for 4 h by replacing cultured media with fresh medium (without serum). All synthesized compounds were properly dissolved in dimethyl sulfoxide (DMSO) to produce a stock concentration of 0.1 M. Cells were incubated with a range of different concentrations of the compounds we were testing (0–1000 μM) to give a final volume of 300 µL per well. In comparison, cells were incubated either alone with DMSO (negative control) or with 5-fluorouracil as a positive control. DMSO was used as a vehicle for the dissolution of the tested compounds and its final concentration in cultured media was less than 0.1%. Triplicate wells were designed for each individual dose. The compounds we synthesized were evaluated for in-vitro cytotoxicity properties via the standard 3-(4,5-dimethythiazol-2-yl)-2,5-diphenyl tetrazolium bromide (MTT) assay accordingly to our previously-reported work. The normal human fibroblast line (HSF1184) was used as a standard reference for the measurement of selectivity indexes (SIs) relative to cancer cell lines. The IC50 values and SIs were calculated accordingly.

[2] = system: MDA-MB-231; experiment: MTT cytotoxicity assay, MDA-MB-231 breast cancer cells; format: cell-based, human; settings: for IC50: Homo sapiens, MDA-MB-231 breast cancer cells, MTT; for SI (MDA-MB-231): selectivity index relative to normal human fibroblasts HSF1184
Method: as §1, §2

[3] = system: HepG2; experiment: MTT cytotoxicity assay, HepG2 liver cancer cells; format: cell-based, human; settings: for IC50: MTT; for SI (HepG2): selectivity index relative to normal human fibroblasts HSF1184
Method: as §1, §2

[4] = system: DU145; experiment: MTT cytotoxicity assay, DU145 prostate cancer cells; format: cell-based, human; settings: for IC50: Homo sapiens, DU-145, DU145 prostate cancer cells, MTT; for SI (DU145): selectivity index relative to normal human fibroblasts HSF1184
Method: as §1, §2

[5] = system: HepG2, DU145 and MBA-MB-231 cancer cell lines; experiment: MTT cytotoxicity, stated jointly for the three cancer cell lines; format: cell-based; settings: Homo sapiens; summary statement for HepG2, DU145 and MBA-MB-231; read-out: IC50 against all three cancer cell lines
Method: as §1, §2

[6] = Homo sapiens, HepG2, HepG2 liver cancer cells

O=c1[nH]cc(F)c(=O)[nH]1 [5-fluorouracil, reference compound]
IC50 [1]: 185.5 ± 0.48 µM | IC50 [2]: 2.21 ± 0.28 µM | SI (MDA-MB-231) [2]: 83.93 | IC50 [3, 6]: 1.65 ± 0.09 µM | SI (HepG2) [3]: 112.41 | IC50 [4]: 1.92 ± 0.24 µM | SI (DU145) [4]: 96.60

COc1nc(-c2cc(Cl)sc2Cl)cc(-c2ccccc2)c1C#N [5a, 6-(2,5-dichlorothiophen-3-yl)-2-methoxy-4-phenylpyridine-3-carbonitrile]
IC50 [1]: 82.39 ± 0.04 µM | IC50 [2]: 21.2 ± 0.37 µM | IC50 [3, 6]: 49.6 ± 0.51 µM | IC50 [5]: > 100 µM | IC50 [4]: > 100 µM

COc1nc(-c2cc(Cl)sc2Cl)cc(-c2ccc(C)cc2)c1C#N [5b, 6-(2,5-dichlorothiophen-3-yl)-2-methoxy-4-p-tolylpyridine-3-carbonitrile]
IC50 [1]: 114.5 ± 0.38 µM | IC50 [2]: > 100 µM | IC50 [3, 6]: 9.48 ± 0.63 µM | IC50 [5]: > 100 µM | IC50 [4]: > 100 µM

COc1nc(-c2cc(Cl)sc2Cl)cc(-c2ccc(Cl)cc2)c1C#N [5c, 4-(4-chlorophenyl)-6-(2,5-dichlorothiophen-3-yl)-2-methoxypyridine-3-carbonitrile]
IC50 [1]: 92.38 ± 0.38 µM | IC50 [2]: 28.3 ± 0.42 µM | SI (MDA-MB-231) [2]: 3.26 | IC50 [3, 6]: > 100 µM | IC50 [5]: > 100 µM | IC50 [4]: 42.36 ± 0.21 µM | SI (DU145) [4]: 2.18 | melting point: 195 to 196 °C

COc1nc(-c2cc(Cl)sc2Cl)cc(-c2ccc(Br)cc2)c1C#N [5d, 4-(4-bromophenyl)-6-(2,5-dichlorothiophen-3-yl)-2-methoxypyridine-3-carbonitrile]
IC50 Values HSF1184 [1]: high | IC50 [1]: 423.4 ± 0.49 µM | IC50 [2]: 2.59 ± 0.04 µM | SI (MDA-MB-231) [2]: 163.49 | IC50 ([3]; HepG2 liver cancer cells): 1.62 ± 0.15 µM | IC50 [3, 6]: 1.53 µM | SI (HepG2) [3]: 261.39 | IC50 [5]: 1 to 5 µM | IC50 [4]: 3.63 ± 0.17 µM | SI (DU145) [4]: 116.65 | melting point: 214 to 215 °C

COc1cccc(-c2cc(-c3cc(Cl)sc3Cl)nc(OC)c2C#N)c1 [5f, 6-(2,5-dichlorothiophen-3-yl)-2-methoxy-4-(3-methoxyphenyl)pyridine-3-carbonitrile]
IC50 [1]: 95.49 ± 0.29 µM | IC50 [2]: 43.49 ± 0.06 µM | SI (MDA-MB-231) [2]: 2.20 | IC50 [3, 6]: 18.3 ± 0.31 µM | SI (HepG2) [3]: 5.21 | IC50 [4]: 27.4 ± 0.63 µM | SI (DU145) [4]: 3.48 | melting point: 179 to 180 °C

COc1nc(-c2cc(Cl)sc2Cl)cc(-c2cccc([N+](=O)[O-])c2)c1C#N [5g, 6-(2,5-dichlorothiophen-3-yl)-2-methoxy-4-(3-nitrophenyl)pyridine-3-carbonitrile]
IC50 Values HSF1184 [1]: high | IC50 [1]: 135.6 ± 0.55 µM | IC50 [2]: 1.93 ± 0.03 µM | IC50 [3, 6]: 2.11 ± 0.26 µM | IC50 [5]: 1 to 5 µM | IC50 [4]: 4.97 ± 0.35 µM

COc1nc(-c2cc(Cl)sc2Cl)cc(-c2ccc([N+](=O)[O-])cc2)c1C#N [5h, 6-(2,5-dichlorothiophen-3-yl)-2-methoxy-4-(4-nitrophenyl)pyridine-3-carbonitrile]
IC50 Values HSF1184 [1]: high | IC50 [1]: 187.49 ± 0.14 µM | IC50 [2]: 2.14 ± 0.06 µM | SI (MDA-MB-231) [2]: 87.61 | IC50 [3, 6]: 1.53 ± 0.38 µM | SI (HepG2) [3]: 122.54 | IC50 [5]: 1 to 5 µM | IC50 [4]: 1.77 ± 0.38 µM | SI (DU145) [4]: 105.93 | melting point: 204 to 205 °C

COc1ccc(-c2cc(-c3cc(Cl)sc3Cl)nc(OC)c2C#N)cc1Br [5i, 4-(3-bromo-4-methoxyphenyl)-6-(2,5-dichlorothiophen-3-yl)-2-methoxypyridine-3-carbonitrile]
IC50 Values HSF1184 [1]: high | IC50 [1]: 234.5 ± 0.27 µM | IC50 [2]: 1.38 ± 0.03 µM | IC50 ([3]; HepG2 liver cancer cells): 1.72 ± 0.42 µM | IC50 [3, 6]: 1.53 µM | IC50 [5]: 1 to 5 µM | IC50 [4]: 1.82 ± 0.21 µM

COc1cc(-c2ccccc2)cc(-c2cc(Cl)sc2Cl)n1 [6a, 2-(2,5-dichlorothiophen-3-yl)-6-methoxy-4-phenylpyridine]
IC50 [1]: 89.34 ± 0.55 µM | IC50 [2]: 15.3 ± 0.41 µM | SI (MDA-MB-231) [2]: 5.82 | IC50 [3, 6]: 32.31 ± 0.23 µM | SI (HepG2) [3]: 2.77 | IC50 [4]: 53.49 ± 0.02 µM | SI (DU145) [4]: 1.67 | melting point: 127 to 128 °C

COc1cc(-c2ccc(C)cc2)cc(-c2cc(Cl)sc2Cl)n1 [6b, 2-(2,5-dichlorothiophen-3-yl)-6-methoxy-4-p-tolylpyridine]
IC50 [1]: 102.4 ± 0.3 µM | IC50 [2]: 52.39 ± 0.31 µM | SI (MDA-MB-231) [2]: 1.95 | IC50 [3, 6]: 39.5 ± 0.58 µM | SI (HepG2) [3]: 2.59 | IC50 [4]: 64.59 ± 0.08 µM | SI (DU145) [4]: 1.59 | melting point: 150 to 151 °C

COc1cc(-c2ccc(Cl)cc2)cc(-c2cc(Cl)sc2Cl)n1 [6c, 4-(4-chlorophenyl)-2-(2,5-dichlorothiophen-3-yl)-6-methoxypyridine]
IC50 [1]: 112.4 ± 0.47 µM | IC50 [3, 6]: 11.3 ± 0.22 µM | IC50 [4]: 21.65 ± 0.12 µM

COc1cc(-c2ccc(Br)cc2)cc(-c2cc(Cl)sc2Cl)n1 [6d, 4-(4-bromophenyl)-2-(2,5-dichlorothiophen-3-yl)-6-methoxypyridine]
IC50 [1]: 92.55 ± 0.42 µM | IC50 [2]: 15.4 ± 0.48 µM | SI (MDA-MB-231) [2]: 6.00 | IC50 [3, 6]: 64.59 ± 0.33 µM | SI (HepG2) [3]: 1.43 | IC50 [4]: 29.4 ± 0.88 µM | SI (DU145) [4]: 3.14 | melting point: 148 to 149 °C

COc1cc(-c2ccccc2OC)cc(-c2cc(Cl)sc2Cl)n1 [6e, 2-(2,5-dichlorothiophen-3-yl)-6-methoxy-4-(2-methoxyphenyl)pyridine]
melting point: 135 to 136 °C

COc1cccc(-c2cc(OC)nc(-c3cc(Cl)sc3Cl)c2)c1 [6f, 2-(2,5-dichlorothiophen-3-yl)-6-methoxy-4-(3-methoxyphenyl)pyridine]
IC50 [1]: 104.8 ± 0.71 µM | IC50 [2]: 64.39 ± 0.28 µM | SI (MDA-MB-231) [2]: 1.63 | IC50 [3, 6]: 38.5 ± 0.62 µM | SI (HepG2) [3]: 2.73 | IC50 [4]: 18.45 ± 0.02 µM | SI (DU145) [4]: 5.68 | melting point: 156 to 157 °C

COc1cc(-c2cccc([N+](=O)[O-])c2)cc(-c2cc(Cl)sc2Cl)n1 [6g, 2-(2,5-dichlorothiophen-3-yl)-6-methoxy-4-(3-nitrophenyl)pyridine]
IC50 [1]: 84.56 ± 0.4 µM | IC50 [2]: 18.3 ± 0.34 µM | SI (MDA-MB-231) [2]: 4.61 | IC50 [3, 6]: 39.43 ± 0.09 µM | SI (HepG2) [3]: 2.14 | IC50 [4]: 25.4 ± 0.38 µM | SI (DU145) [4]: 3.33 | melting point: 182 to 183 °C
